Measured values from patent US8710233B2 (Gruenenthal GmbH, priority 2005, dated 2014).
pIC50, pKi: −log10 of the molar value. Where two headings read alike, the source gives them in different places.

Key:
Format in all cases: cell-based
[1] = target: T1, vanilloid receptor (VR1) (Homo sapiens, UniProt Q8NER1); assay: FLIPR Ca2+ influx assay on CHO K1 cells transfected with the VR1 gene (pharmacological method II); details: for inhibition at 10 µM: CHO-K1, read-out: inhibition in percent, Ki (human) Cap.
T1 construct: expressed in transfected cells; host or cells: CHO K1 cells (ECACC), stably transfected
T1 sequence (Q8NER1 whole entry): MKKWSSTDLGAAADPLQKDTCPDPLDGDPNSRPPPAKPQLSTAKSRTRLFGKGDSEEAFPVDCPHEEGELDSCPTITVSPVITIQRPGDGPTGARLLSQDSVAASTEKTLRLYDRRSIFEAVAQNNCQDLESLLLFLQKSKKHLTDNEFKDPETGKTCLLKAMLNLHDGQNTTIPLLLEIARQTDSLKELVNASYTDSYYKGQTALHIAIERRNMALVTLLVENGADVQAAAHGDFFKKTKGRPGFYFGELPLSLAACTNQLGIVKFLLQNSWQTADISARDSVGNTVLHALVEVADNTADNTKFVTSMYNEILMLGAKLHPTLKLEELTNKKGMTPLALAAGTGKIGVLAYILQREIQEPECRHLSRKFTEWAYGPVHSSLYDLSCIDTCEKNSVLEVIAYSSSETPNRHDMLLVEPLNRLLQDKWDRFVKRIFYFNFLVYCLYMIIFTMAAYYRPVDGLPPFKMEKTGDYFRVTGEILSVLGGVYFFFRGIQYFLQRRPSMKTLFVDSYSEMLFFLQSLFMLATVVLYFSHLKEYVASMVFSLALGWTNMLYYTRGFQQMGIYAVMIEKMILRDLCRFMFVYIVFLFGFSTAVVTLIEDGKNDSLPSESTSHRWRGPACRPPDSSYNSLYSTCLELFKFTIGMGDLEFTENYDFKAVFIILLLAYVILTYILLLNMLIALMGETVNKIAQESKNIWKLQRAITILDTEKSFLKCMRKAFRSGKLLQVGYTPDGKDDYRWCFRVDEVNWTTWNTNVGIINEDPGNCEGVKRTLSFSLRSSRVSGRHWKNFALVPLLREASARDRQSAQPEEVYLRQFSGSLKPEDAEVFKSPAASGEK

[2] = target: VR1/TRPV1 receptor (Homo sapiens, UniProt Q8NER1); assay: IC50 (human) after pH stimulus
Chain of VR1/TRPV1 receptor (Q8NER1 whole entry): as above

[3] = target: T2, vanilloid receptor 1 (VR1/TRPV1) of the rat species (Rattus norvegicus, UniProt O35433); assay: FLIPR Ca2+ influx assay on rat dorsal root ganglia cells (pharmacological method I); details: for inhibition at 10 µM: read-out: inhibition in percent, Ki (rat) Cap.
T2 construct: The spinal column is removed from decapitated rats; from tissue; host or cells: primary cells dissociated from rat dorsal root ganglia
T2 sequence (O35433 whole entry): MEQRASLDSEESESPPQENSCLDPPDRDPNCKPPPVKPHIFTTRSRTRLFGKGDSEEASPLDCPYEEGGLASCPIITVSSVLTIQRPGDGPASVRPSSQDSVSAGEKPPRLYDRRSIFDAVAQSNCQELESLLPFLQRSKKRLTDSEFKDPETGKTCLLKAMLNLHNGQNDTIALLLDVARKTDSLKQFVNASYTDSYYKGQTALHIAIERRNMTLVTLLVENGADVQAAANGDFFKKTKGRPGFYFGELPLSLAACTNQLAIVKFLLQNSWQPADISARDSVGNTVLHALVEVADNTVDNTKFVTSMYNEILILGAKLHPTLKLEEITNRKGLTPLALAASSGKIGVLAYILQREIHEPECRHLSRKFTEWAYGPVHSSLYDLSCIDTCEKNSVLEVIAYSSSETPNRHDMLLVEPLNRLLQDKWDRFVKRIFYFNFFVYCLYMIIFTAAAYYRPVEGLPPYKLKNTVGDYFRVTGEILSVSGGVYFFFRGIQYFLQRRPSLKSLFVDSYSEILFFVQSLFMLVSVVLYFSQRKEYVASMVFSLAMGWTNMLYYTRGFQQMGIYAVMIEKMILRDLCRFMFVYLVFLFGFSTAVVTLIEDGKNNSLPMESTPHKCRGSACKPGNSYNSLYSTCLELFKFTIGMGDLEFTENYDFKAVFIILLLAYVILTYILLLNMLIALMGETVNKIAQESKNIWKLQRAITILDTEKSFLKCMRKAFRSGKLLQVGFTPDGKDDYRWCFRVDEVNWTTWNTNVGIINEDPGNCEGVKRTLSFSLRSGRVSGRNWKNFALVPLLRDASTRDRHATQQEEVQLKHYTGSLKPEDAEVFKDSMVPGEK
Procedure, shortened: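 Primary rat dorsal root ganglion cells loaded with 2 μM Fluo-4, Ca2+ influx read on FLIPR as peak fluorescence. Triplicates, at least 3 independent experiments.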

[4] = table 4, capsaicin, read-out: Ki (human) Cap.
[5] = @ 1 μM, ne = no effect, read-out: inhibition in percent, IC50 (human) after pH stimulus
[6] = read-out: inhibition in percent, IC50 (human) after pH stimulus
[7] = table 4, capsaicin, read-out: Ki (rat) Cap.
[8] = Table 2, displacement of capsaicin (100 nM), Cheng-Prusoff, read-out: Ki (human)

Row | SMILES | pKi [1, 4] | inhibition at 1 µM [2, 5] [%] | pKi [3, 7] | pIC50 ([2]; table 4) | further results
1 | CC(C(=O)NCc1ccc(C(F)(F)F)nc1N1CCCCC1C)c1ccc(NS(C)(=O)=O)c(F)c1 (stereo not shown) [Example 283, 2-(3-fluoro-4-methylsulfonamido-phenyl)-N-(2-methyl-6′-trifluoromethyl-3,4,5,6-tetrahydro-2H-[1,2′]bipyridinyl-3′-ylmethyl)-propionamide] | 8.54 | 51 | 8.35 | – | inhibition at 10 µM [2, 6]: 51%
2 | CC(C(=O)NCc1ccc(C(F)(F)F)nc1Oc1ccccc1)c1ccc(NS(C)(=O)=O)c(F)c1 (stereo not shown) [Example 198, 2-(3-fluoro-4-methylsulfonamido-phenyl)-N-(2-phenoxy-6-trifluoromethyl-pyridin-3-ylmethyl)-propionamide] | 8.19 | 31 | – | – | inhibition at 0.1 µM ([2]; @ 0.1 μM, read-out: inhibition in percent, IC50 (human) after pH stimulus): 11%; pKi ([3]; Ki (rat) Cap., table 4, capsaicin): 9.05
3 | CC1CCN(c2nc(C(F)(F)F)ccc2CCNC(=O)C(C)c2ccc(NS(C)(=O)=O)c(F)c2)CC1 (stereo not shown) [Example 284, 2-(3-fluoro-4-methylsulfonamido-phenyl)-N-[2-(4-methyl-6′-trifluoromethyl-3,4,5,6-tetrahydro-2H-[1,2′]bipyridinyl-3′-yl)-ethyl]-propionamide] | 7.26 | – | 7.32 | – | inhibition in percent, IC50 (human) after pH stimulus ([2]; @ 1 μM, ne = no effect): ne @ 1 μM
4 | CC(C(=O)NCc1ccc(C(F)(F)F)nc1C=Cc1ccccc1)c1ccc(NS(C)(=O)=O)c(F)c1 (stereo not shown) [Example 191, 2-(3-fluoro-4-(methylsulfonamido)phenyl)-N-((2-styryl-6-(trifluoromethyl)pyridin-3-yl)methyl)propanamide] | 8.66 | – | 8.70 | 7.07 | –
5 | CC(C(=O)NCc1ccc(C(F)(F)F)nc1CCc1ccccc1)c1ccc(NS(C)(=O)=O)c(F)c1 (stereo not shown) [Example 192, 2-(3-fluoro-4-methylsulfonamido-phenyl)-N-(2-phenethyl-6-trifluoromethyl-pyridin-3-ylmethyl)-propionamide] | 8.85 | – | 8.62 | 7.33 | –
6 | CC(C(=O)NCc1ccc(C(F)(F)F)cc1N1CCOCC1)c1ccc(NS(C)(=O)=O)c(F)c1 (stereo not shown) [Example 33, 2-(3-fluoro-4-(methylsulfonamido)phenyl)-N-(2-morpholino-4-(trifluoromethyl)benzyl)propanamide] | – | – | – | – | pKi [1, 8]: 8.14; pIC50 ([2]; Table 2): 5.86; pKi ([3]; Table 2, displacement of capsaicin (100 nM), Cheng-Prusoff, read-out: Ki (rat)): 8.32
7 | CC1CCCN(c2nc(C(F)(F)F)ccc2CNC(=O)C(C)c2ccc(NS(C)(=O)=O)c(F)c2)C1 (stereo not shown) [Example 282, 2-(3-fluoro-4-methylsulfonamido-phenyl)-N-(3-methyl-6′-trifluoromethyl-3,4,5,6-tetrahydro-2H-[1,2′]bipyridinyl-3′-ylmethyl)-propionamide] | 9.10 | 57 | 8.92 | – | inhibition at 10 µM [2, 6]: 62%
8 | CC(C(=O)NCc1ccc(C(C)(C)C)cc1OC1CCCC1)c1ccc(NS(C)(=O)=O)c(F)c1 (stereo not shown) [Example 155, N-(4-tert-butyl-2-cyclopentyloxy-benzyl)-2-(3-fluoro-4-methylsulfonamido-phenyl)-propionamide] | 8.74 | – | 9.10 | 6.84 | –
9 | CC(C(=O)NCc1ccc(C(C)(C)C)cc1N1CCCCC1)c1ccc(NS(C)(=O)=O)c(F)c1 (stereo not shown) [Example 63, N-(4-tert-butyl-2-(piperidin-1-yl)benzyl)-2-(3-fluoro-4-(methylsulfonamido)-phenyl)propanamide] | 7.54 | 70 | 7.62 | – | –
10 | CC(C(=O)NCc1ccc(C(F)(F)F)nc1N1CCC(=O)CC1)c1ccc(NS(C)(=O)=O)c(F)c1 (stereo not shown) [Example 227] | 7.04 | 7 | 6.46 | – | inhibition at 10 µM [2, 6]: 51%
11 | CC(C(=O)NCc1ccc(C(F)(F)F)cc1F)c1ccc(NS(C)(=O)=O)c(F)c1 (stereo not shown) [Example 114, 2-(3-fluoro-4-methylsulfonamido-phenyl)-N-(2-fluoro-4-trifluoromethyl-benzyl)-propionamide] | 7.16 | – | 7.55 | 5.63 | –
12 | COc1nc(C(F)(F)F)ccc1CNC(=O)C(C)c1ccc(NS(C)(=O)=O)c(F)c1 (stereo not shown) [Example 18, 2-(3-fluoro-4-(methylsulfonamido)phenyl)-N-((2-methoxy-6-(trifluoromethyl)pyridin-3-yl)methyl)propanamide] | – | – | – | – | pKi [1, 8]: 7.16; pIC50 ([2]; Table 2): 5.57; pKi ([3]; Ki (rat), Table 2, displacement of capsaicin (100 nM), Cheng-Prusoff): 7.33
13 | CCCCOc1cc(C(F)(F)F)ccc1CNC(=O)C(C)c1ccc(NS(C)(=O)=O)c(F)c1 (stereo not shown) [Example 40, N-(2-butoxy-4-(trifluoromethyl)benzyl)-2-(3-fluoro-4-(methylsulfonamido)-phenyl)propanamide] | 9.00 | – | 9.40 | 7.32 | –
14 | CCN(CC)c1nc(C(F)(F)F)ccc1CNC(=O)C(C)c1ccc(NS(C)(=O)=O)c(F)c1 (stereo not shown) [Example 15, N-((2-(diethylamino)-6-(trifluoromethyl)pyridin-3-yl)methyl)-2-(3-fluoro-4-(methylsulfonamido)phenyl)propanamide] | 8.46 | – | 7.92 | 6.83 | –
15 | Cc1ccc(CCc2nc(C(F)(F)F)ccc2CNC(=O)C(C)c2ccc(NS(C)(=O)=O)c(F)c2)cc1 (stereo not shown) [Example 264, 2-(3-fluoro-4-methylsulfonamido-phenyl)-N-[2-(2-p-tolyl-ethyl)-6-trifluoromethyl-pyridin-3-ylmethyl]-propionamide] | 9.22 | – | 9.05 | 7.80 | –
16 | CC(C(=O)NCc1ccc(C(F)(F)F)nc1N1CCC(OC(=O)C(C)(C)C)CC1)c1ccc(NS(C)(=O)=O)c(F)c1 (stereo not shown) [Example 226, 2,2-dimethyl-propionic acid 3′-{[2-(3-fluoro-4-methylsulfonamido-phenyl)-propionylamino]-methyl}-6′-trifluoromethyl-3,4,5,6-tetrahydro-2H-[1,2′]bipyridinyl-4-yl ester] | 8.70 | – | 8.82 | 7.34 | –
17 | CC(C(=O)NCc1ccc(C(C)(C)C)nc1OC1CCCCC1)c1ccc(NS(C)(=O)=O)c(F)c1 (stereo not shown) [Example 233, N-(6-tert-butyl-2-cyclohexyloxy-pyridin-3-ylmethyl)-2-(3-fluoro-4-methylsulfonamido-phenyl)-propionamide] | 8.60 | 50 | 8.85 | – | inhibition at 10 µM [2, 6]: 63%
18 | CCOC1CCN(c2nc(C(F)(F)F)ccc2CNC(=O)C(C)c2ccc(NS(C)(=O)=O)c(F)c2)CC1 (stereo not shown) [Example 228, N-(4-ethoxy-6′-trifluoromethyl-3,4,5,6-tetrahydro-2H-[1,2′]bipyridinyl-3′-ylmethyl)-2-(3-fluoro-4-methylsulfonamido-phenyl)-propionamide] | 8.89 | – | 8.60 | 6.21 | –
19 | CCCCCOc1cc(C(C)(C)C)ccc1CNC(=O)C(C)c1ccc(NS(C)(=O)=O)c(F)c1 (stereo not shown) [Example 153, N-(4-tert-butyl-2-pentyloxy-benzyl)-2-(3-fluoro-4-methylsulfonamido-phenyl)-propionamide] | 8.66 | – | 9.15 | 7.03 | –
20 | CC(C(=O)NCc1ccc(C(F)(F)F)cc1OC1CCCC1)c1ccc(NS(C)(=O)=O)c(F)c1 (stereo not shown) [Example 42, N-(2-(cyclopentyloxy)-4-(trifluoromethyl)benzyl)-2-(3-fluoro-4-(methylsulfonamido)phenyl)propanamide] | 9.22 | – | 9.30 | 7.59 | –
21 | CC(C(=O)NCc1ccc(C(F)(F)F)nc1)c1ccc(NS(C)(=O)=O)c(F)c1 (stereo not shown) [Example 215, 2-(3-fluoro-4-methylsulfonamido-phenyl)-N-(6-trifluoromethyl-pyridin-3-ylmethyl)-propionamide] | – | – | – | – | inhibition at 10 µM [1]: 37%; inhibition at 25 µM ([2]; @ 25 μM, read-out: inhibition in percent, IC50 (human) after pH stimulus): 15%; inhibition at 10 µM [3]: 48%
22 | CC(C(=O)NCc1ccc(C(F)(F)F)nc1N1CCN(c2ccncc2)CC1)c1ccc(NS(C)(=O)=O)c(F)c1 (stereo not shown) [Example 176, 2-(3-fluoro-4-methylsulfonamido-phenyl)-N-[2-(4-pyridin-4-yl-piperazin-1-yl)-6-trifluoromethyl-pyridin-3-ylmethyl]-propionamide] | – | 13 | – | – | inhibition at 10 µM [1]: 63%; inhibition at 10 µM [2, 6]: 43%; inhibition at 10 µM [3]: 60%
23 | CCCN(CCC)c1nc(C(F)(F)Cl)ccc1CNC(=O)C(C)c1ccc(NS(C)(=O)=O)c(F)c1 (stereo not shown) [Example 186, N-[6-(chloro-difluoro-methyl)-2-dipropylamino-pyridin-3-ylmethyl]-2-(3-fluoro-4-methylsulfonamido-phenyl)-propionamide] | 9.22 | – | 9.10 | 7.42 | –
24 | CC(C(=O)NCc1ccc(C(F)(F)F)nc1OCc1ccc(Cl)cc1)c1ccc(NS(C)(=O)=O)c(F)c1 (stereo not shown) [Example 258, N-[2-(4-chloro-benzyloxy)-6-trifluoromethyl-pyridin-3-ylmethyl]-2-(3-fluoro-4-methylsulfonamido-phenyl)-propionamide] | 8.60 | – | 8.89 | 6.88 | –
25 | CC(C(=O)NCc1ccc(C(F)(F)F)nc1-c1ccc(Cl)c(Cl)c1)c1ccc(NS(C)(=O)=O)c(F)c1 (stereo not shown) [Example 250, N-[2-(3,4-dichloro-phenyl)-6-trifluoromethyl-pyridin-3-ylmethyl]-2-(3-fluoro-4-methylsulfonamido-phenyl)-propionamide] | 9.05 | 51 | 9.05 | – | inhibition at 10 µM [2, 6]: 68%
